pKd: −log10 of the molar value. Each block holds one compound with its values, some of them ahead of it. Ends that are not written are not given here.
Legend:
MLE12 cells = assay: Epithelial-to-myofibroblast differentiation, vimentin FACS after TGF-β; format: cell-based
STAT3 protein = STAT3 protein (Homo sapiens, UniProt P40763); assay: Binding of the aptide to STAT3 protein; conditions: read-out: affinity of binding to STAT3 protein
Description: The aptide according to the present invention can be an aptide that specifically binds to STAT3 (signal transducer and activator of transcription 3) protein, and can specifically be composed of the amino acid sequence represented by SEQ. ID. NO: 2. the aptide for STAT3 protein is stable with a size of about 5 kDa, and can bind to STAT3 protein with a high affinity of 200 nM. The aptide for STAT3 protein can inhibit the activation of STAT3 protein by binding to SH2 domain of STAT3 protein and suppressing the phosphorylation. This mechanism may have less effect on an inaccurate target than a conventional JAK inhibitor that inhibits the activation of STAT3 protein using the JAK inhibitory mechanism.

[1] = test system: MLE12 lung epithelial cells; assay: Lung epithelial cell uptake (confocal, FACS); format: cell-based; conditions: 20 μM, 4 h
Description: In vitro cell uptake of FITC-APTstat3-9R and FITC-APTstat3-9R-DLNPs was determined by confocal microscopy imaging and FACS analysis. For confocal imaging, MLE12 cells were seeded on sterile cover glass in 12-well plate at 5×10^5 cells/well density followed by overnight incubation. The cells were treated with PBS, FITC-APTstat3-9R (20 μM), or FITC-APTstat3-9R-DLNPs (20 μM) for 4 h. The samples were washed twice with 1×PBS to discard free aptides. Subsequent sample preparation and analysis were described previously in in vitro macrophage polarization analysis section. For FACS experiment, MLE 12 cells were seeded in a 6-well plate at 3×10^5 cells/well density and incubated overnight for stabilization. The samples were treated with PBS, FITC-APTstat3-9R (20 μM), or FITC-APTstat3-9R-DLNPs (20 μM) for 4 h, washed, and collected using trypsin. The following steps were previously detailed in in vitro macrophage polarization analysis.

RAW264.7 cells = assay: M2 polarization of IL-10 stimulated macrophages, CD163 FACS; format: cell-based, mouse; conditions: 20 μM, IL-10 stimulation 48 h
Description: To perform FACS analysis, mouse macrophage cell line (RAW264.7) was seeded in a 6-well plate at 2×10^5 cells/well density and incubated overnight for stabilization. In order to induce M2-type polarization, the samples were stimulated with IL-10 for 48 h in a 37° C.-maintained, 5% CO2 incubator. PBS, APTscr-9R(20 μM), and APTstat3-9R(20 μM) were simultaneously accordingly added for co-treatment. After the incubation, the specimens were collected and incubated for 30 min with 10% BSA in PBS to block non-specific binding of antibodies. After blocking, the samples were washed with three changes of 1×PBS for 5 min each. The collected specimens were resuspended in a 1 mL of separation buffer. The cells were collected in the filter tubes with strainer ([…]). After buffer removal, direct immunostaining was performed using phycoerythrin-cojugated CD163 monoclonal primary antibody (Invitrogen, Waltham, Mass., USA) at […] with 90 min incubation at 4° C. Upon the incubation, the cells were once again washed with three changes of 1×PBS for 5 min. […] The samples (20,000 cells) were analyzed using a LSR Fortessa™ high-performance multi-parameter flow cytometer (BD Bioscience, San Jose, Calif., USA) processed with FlowJo software (Tree Star Inc., San Carlos, Calif., USA).

psoriasis animal model = assay: Inhibitory effect on inflammation in imiquimod-induced psoriasis animal model; format: in vivo, mouse; conditions: day 7
Description: The nanoparticle complex prepared in Example 3 was applied on the skin of a psoriasis animal model and the inhibitory effect of the complex on inflammation caused by psoriasis was investigated. First, the hair of the ear of the mouse was removed, and imiquimod was continuously treated at the concentration of 20 mg/cm^2 for 6 days from the next day to induce psoriasis. On the other hand, on the 2nd to 6th day of the treatment of imiquimod, the nanoparticle complex of Example 3 or Comparative Example 3 was applied in a total amount of 100 μg, 50 μg per time. On the day when imiquimod and the treatment drug were treated together, the treatment drug was applied 4 hours before and after the application of imiquimod to prevent the interaction between the drugs. At this time, the groups treated with Vaseline and DW were used as the negative control, and the group applied with clobetasol propionate (CLQ) at the concentration of 20 mg/cm^2 was used as the positive control. The application of the nanoparticle complex was completed by day 6, and the inhibitory effect on inflammation was confirmed using the animal model on day 7 (FIG. 14). Particularly, the inhibitory effect on inflammation was confirmed by measuring the thickness of the ear of the animal model, the punch biopsy weight, tissue H&E test, ELISA after tissue crushing, and the extracted spleen weight. […]

STAT3 protein, sequence (P40763 whole entry, species assumed, the tested form may be a part): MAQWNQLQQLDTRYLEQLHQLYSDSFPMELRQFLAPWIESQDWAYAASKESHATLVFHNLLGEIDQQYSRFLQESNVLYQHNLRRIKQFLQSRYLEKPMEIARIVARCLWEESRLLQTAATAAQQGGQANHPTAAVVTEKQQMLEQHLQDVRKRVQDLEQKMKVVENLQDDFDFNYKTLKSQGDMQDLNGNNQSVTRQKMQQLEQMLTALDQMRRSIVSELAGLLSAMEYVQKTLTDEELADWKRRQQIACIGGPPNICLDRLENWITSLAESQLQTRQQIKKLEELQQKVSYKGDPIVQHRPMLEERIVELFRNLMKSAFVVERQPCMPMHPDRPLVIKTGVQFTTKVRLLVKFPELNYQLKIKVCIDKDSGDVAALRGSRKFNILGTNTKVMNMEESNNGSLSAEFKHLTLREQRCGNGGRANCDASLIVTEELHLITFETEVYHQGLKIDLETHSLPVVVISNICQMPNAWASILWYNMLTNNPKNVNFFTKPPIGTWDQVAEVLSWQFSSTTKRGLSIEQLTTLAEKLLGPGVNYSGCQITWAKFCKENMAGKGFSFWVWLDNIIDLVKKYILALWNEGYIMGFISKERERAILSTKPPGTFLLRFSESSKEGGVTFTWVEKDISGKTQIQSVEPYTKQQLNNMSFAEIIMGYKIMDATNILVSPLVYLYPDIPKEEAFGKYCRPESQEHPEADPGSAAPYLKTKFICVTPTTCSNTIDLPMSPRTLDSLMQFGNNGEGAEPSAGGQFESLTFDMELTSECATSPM

Compound: APTscr-9R: control aptide, SEQ ID NO:9; b173 calls it a lipid nanoparticle complex prepared as Example 3 with this aptide (HASDRNGSWTWENGKWTWKGLHEQSD; also: part of a lipid nanoparticle complex) [reference compound]
vimentin marker level after stimulation (MLE12 cells): vastly increased

pKd (STAT3 protein): 6.70
Compound: HGFQWPGSWTWENGKWTWKGAYQFLK [aptide for STAT3 protein]

Compound: HGFQWPGSWTWENGKWTWKGAYQFLKGGGGSRRRRRRRRR (Aptide against STAT3 fused with nona-arginine) [APTstat3-9R]
uptake into MLE 12 lung epithelial cells (confocal images) [1]: uptaken
increase in CD163 level (M2 macrophage specific marker) (RAW264.7 cells): not upregulated
vimentin marker level after stimulation (MLE12 cells): fairly decreased
reduction of vimentin level compared to PBS treated group (MLE12 cells; TGF-β stimulation): approximately 29%

size and weight of the spleen (psoriasis animal model): shrivelled
Compound: CCC(=O)O[C@]1(C(=O)CCl)[C@@H](C)C[C@H]2[C@@H]3CCC4=CC(=O)C=C[C@]4(C)[C@@]3(F)[C@@H](O)C[C@@]21C [CLQ, clobetasol propionate]

From patent US20200376138A1, “LIPID NANO PARTICLE COMPLEX COMPRISING APTIDE FUSED WITH CELL PENETRATING MATERIALS AND USE SAME” (Korea Advanced Institute of Science and Technology, priority 2019, published 2020)
